The supplement of paper PMC10307832

Tests used:
Assay in all cases: relative viability (nuclei count vs DMSO), 5 days (fraction); higher = more cells survive
[1] = compound: O=C(/C=C/c1ccccc1)NC(NC(=S)Nc1cccc2cccnc12)C(Cl)(Cl)Cl [Salubrinal] + COc1cccc2cc(-c3nc([C@H]4CC[C@H](C(=O)O)CC4)n4ncnc(N)c34)[nH]c12 [OSI-027] (partner 0.5 µM)
Outline: (§1)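 Relative viability was taken as the ratio of nuclei in treated wells to nuclei in vehicle wells. Lung cancer cell lines in 1536-well plates received compounds by pin tool one day after seeding, either one drug alone or a fixed anchor-drug dose plus five library-drug doses (not always all listed) in √10 steps. Nuclei were counted on 4× images after 5 days of treatment, and values are medians of duplicate plates.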

[2] = compound: O=C(/C=C/c1ccccc1)NC(NC(=S)Nc1cccc2cccnc12)C(Cl)(Cl)Cl [Salubrinal] + NC(=O)Nc1cc(-c2cccc(F)c2)sc1C(=O)N[C@H]1CCCNC1 [AZD7762] (partner 0.2 µM)
Outline: as §1

[3] = compound: Cc1ccc2nc(NCCN)c3ncc(C)n3c2c1 + CCNC(=O)c1noc(-c2cc(C(C)C)c(O)cc2O)c1-c1ccc(CN2CCOCC2)cc1 [Luminespib] (partner 0.01 µM)
Outline: as §1

[4] = compound: Cc1ccc2nc(NCCN)c3ncc(C)n3c2c1 + CS(=O)(=O)N1CCN(Cc2cc3nc(-c4cccc5[nH]ncc45)nc(N4CCOCC4)c3s2)CC1 [Pictilisib] (partner 1 µM)
Outline: as §1

| Cell Line | relative viability ([1]; first compound 0.08 µM) | relative viability ([1]; first compound 0.253 µM) | relative viability ([1]; first compound 0.8 µM) | relative viability ([1]; first compound 2.53 µM) | relative viability ([1]; first compound 8 µM) | relative viability ([2]; first compound 0.08 µM) | relative viability ([2]; first compound 0.253 µM) | relative viability ([2]; first compound 0.8 µM) | relative viability ([2]; first compound 2.53 µM) | relative viability ([2]; first compound 8 µM) | relative viability ([3]; first compound 0.04 µM) | relative viability ([3]; first compound 0.1265 µM) | relative viability ([3]; first compound 0.4 µM) | relative viability ([3]; first compound 1.265 µM) | relative viability ([3]; first compound 4 µM) | relative viability ([4]; first compound 0.04 µM) | relative viability ([4]; first compound 0.1265 µM) | relative viability ([4]; first compound 0.4 µM) | relative viability ([4]; first compound 1.265 µM) | relative viability ([4]; first compound 4 µM) |
| --- | --- | --- | --- | --- | --- | --- | --- | --- | --- | --- | --- | --- | --- | --- | --- | --- | --- | --- | --- | --- |
| LCLC-103H | 0.494 | 0.393 | 0.5 | 0.49 | 0.398 | 0.856 | 0.699 | 0.806 | 0.815 | 0.701 | 0.887 | 0.927 | 0.931 | 0.925 | 0.858 | 0.534 | 0.644 | 0.561 | 0.6 | 0.576 |
| LK-2 | 0.185 | 0.194 | 0.258 | 0.212 | 0.214 | 0.39 | 0.486 | 0.489 | 0.441 | 0.358 | 0.198 | 0.194 | 0.182 | 0.185 | 0.197 | 0.585 | 0.547 | 0.604 | 0.406 | 0.463 |
| LOU-NH91 | 0.721 | 0.708 | 0.744 | 0.737 | 0.688 | 0.813 | 0.785 | 0.83 | 0.745 | 0.706 | 0.342 | 0.31 | 0.31 | 0.36 | 0.318 | 0.528 | 0.534 | 0.514 | 0.56 | 0.475 |
| LU99A | 0.241 | 0.29 | 0.306 | 0.294 | 0.265 | 0.459 | 0.319 | 0.401 | 0.311 | 0.236 | 0.274 | 0.28 | 0.242 | 0.254 | 0.261 | 0.346 | 0.328 | 0.327 | 0.349 | 0.321 |
| LXF-289 | 0.784 | 0.647 | 0.953 | 0.847 | 0.69 | 1.25 | 1.06 | 1.17 | 1.09 | 0.931 | 0.633 | 0.816 | 0.653 | 0.706 | 0.618 | 0.912 | 0.795 | 0.799 | 0.765 | 0.723 |
| NCI-H23 | 0.59 | 0.573 | 0.647 | 0.539 | 0.606 | 0.175 | 0.206 | 0.236 | 0.23 | 0.23 | 0.207 | 0.227 | – | 0.201 | 0.217 | 0.549 | 0.472 | 0.446 | 0.462 | 0.466 |
| NCI-H322M | 0.471 | 0.536 | 0.565 | 0.57 | 0.471 | 0.576 | 0.531 | 0.599 | 0.497 | 0.581 | 0.908 | 0.845 | 0.961 | 0.858 | 0.734 | 0.521 | 0.566 | 0.571 | 0.512 | 0.503 |
| NCI-H358 | 0.83 | 0.74 | 0.848 | 0.582 | 0.672 | 0.583 | 0.461 | 0.538 | 0.561 | 0.459 | 0.309 | 0.373 | 0.236 | 0.326 | 0.313 | 0.348 | 0.394 | 0.364 | 0.379 | 0.367 |
| NCI-H441 | 0.603 | 0.59 | 0.678 | 0.573 | 0.506 | 1.28 | 0.87 | 1.03 | 0.905 | 0.85 | 0.285 | 0.482 | 0.312 | 0.465 | 0.322 | 0.557 | 0.464 | 0.454 | 0.505 | 0.472 |
| NCI-H460 | 1.21 | 0.406 | 1.03 | 0.514 | 0.317 | 0.627 | 0.546 | 0.722 | 0.711 | 0.552 | 0.0414 | 0.0267 | 0.0351 | 0.0331 | 0.0182 | 0.368 | 0.411 | 0.402 | 0.302 | 0.322 |
| NCI-H596 | 0.657 | 0.721 | 0.793 | 0.716 | 0.646 | 1.05 | 1 | 1.07 | 1.16 | 0.865 | 1.12 | 0.959 | 0.967 | 0.215 | 1.05 | 0.384 | 0.37 | 0.285 | 0.309 | 0.411 |
| NCI-H647 | 0.76 | 0.671 | 0.6 | 0.638 | 0.604 | 0.616 | 0.435 | 0.487 | 0.505 | 0.397 | 0.163 | 0.187 | 0.155 | 0.136 | 0.188 | 0.552 | 0.409 | 0.385 | 0.44 | 0.373 |
| NCI-H650 | 0.584 | 0.554 | 0.576 | 0.629 | 0.452 | 1.01 | 1.19 | 1.04 | 0.953 | 0.883 | 0.891 | 0.688 | 0.583 | 0.602 | 0.698 | 0.927 | 0.827 | 0.785 | 0.767 | 0.946 |
| NCI-H727 | 0.505 | 0.621 | 0.562 | 0.618 | 0.575 | 0.574 | 0.648 | 0.649 | 0.583 | 0.584 | 0.36 | – | 0.358 | 0.385 | 0.4 | 0.288 | 0.443 | 0.46 | 0.388 | 0.354 |
| NCI-H838 | 0.327 | 0.402 | 0.372 | 0.4 | 0.407 | 0.961 | 0.957 | 1.06 | 0.962 | 0.951 | 0.362 | 0.344 | 0.324 | 0.3 | 0.258 | 0.43 | 0.416 | 0.409 | 0.423 | 0.365 |
| NCI-H1355 | 0.409 | 0.341 | 0.505 | 0.4 | 0.398 | 0.788 | 0.711 | 0.821 | 0.691 | 0.691 | 0.844 | 0.73 | 0.722 | 0.691 | 0.732 | 0.46 | 0.449 | 0.406 | 0.392 | 0.386 |
